Source: US20180099023A1, “METHODS OF TREATING IRON OVERLOAD” (La Jolla Pharmaceutical Company, priority 2016, published 2018)

What was measured:
Assay type in all cases: in vivo, human
serum iron [1] = experiment: Serum iron after a single subcutaneous dose of hepcidin in patients (Example 1)
Excerpt: Patients were recruited for a multi-day study to observe serum iron levels following administration of hepcidin. All patients who were recruited had either refractory or hemolytic anemia or hemochromatosis. Patients are divided into cohorts and subsequently treated with hepcidin. Treatment consisted of a single subcutaneous (SC) dose of hepcidin on Day 1. Dose escalation with new cohorts occurred only after the patients at each dose level had been observed for a minimum of 3 days and no drug related toxicity had been observed. The starting dose level was 1 mg given via SC injection on Day 1. Doses ranged from 1 mg to 30 mg. Patient cohorts and dosing can be found in Table 1:
Patients were admitted to the research unit the day before the administration of study drug and discharged following assessments 48 hours post dose. Serum iron, ferritin, transferrin, total iron binding capacity, and unsaturated iron binding capacity were measured on Day 1(baseline) and Day 7 (end of study). Serum iron was also measured at 2, 4, 8, 24, and 48 hours post dosing.

serum iron [2] = experiment: Hepcidin administration in patients at risk for iron overload disorders (Example 2)
Experimental: Eighteen patients at risk for iron overload disorders (i.e., refractory or hemolytic anemia or hemochromatosis) received one or two 1-mL subcutaneous injections to achieve the desired dose level (1 mg, 5 mg, 10 mg, 20 mg, or 30 mg). Hepcidin concentration ranged from 1 to 15 mg/mL.

serum iron [3] = experiment: Hepcidin administration in healthy subjects (Example 3)
Experimental: This study enrolled 32 healthy adult subjects in 4 dose groups of 8 subjects per cohort, with 6 subjects assigned to hepcidin treatment and 2 subjects assigned to placebo in each cohort. The starting dose was 5 mg of hepcidin or placebo; subsequent dose groups received 10 mg, 20 mg, and 30 mg, respectively. Subjects received between one and three 1-mL subcutaneous (SC) injections to deliver the desired dose level. Hepcidin concentration was either 5 mg/mL or 10 mg/mL. For data analysis purposes, placebo subjects for all cohort groups were pooled.

[4] = Baseline (pre-dose) to Day 8/End of Study

## hepcidin: 25-amino acid peptide with the amino acid sequence set forth in SEQ ID NO:1 (DTHFPICIFCCGCCHRSKCGMCCKT)
Serum iron [1]; 1 mg single SC dose, n = 3, patients with refractory or hemolytic anemia or hemochromatosis
  Percent Change in Serum Iron from Baseline to Hour 8: −14.2% (p = 0.203)
Serum iron [1]; 1 mg to 20 mg, FIG. 1, p-0.009 for dose response
  dose response of serum iron reduction: dose-dependent, statistically significant reduction in serum iron
Serum iron [1]; 5 mg single SC dose, n = 3, patients with refractory or hemolytic anemia or hemochromatosis
  Percent Change in Serum Iron from Baseline to Hour 8: −26.7% (p = 0.380)
Serum iron [1]; 10 mg single SC dose, n = 3, patients with refractory or hemolytic anemia or hemochromatosis
  Percent Change in Serum Iron from Baseline to Hour 8: −45.5% (p = 0.077)
Serum iron [1]; 20 mg dose level, p=0.001
  reduction of serum iron from baseline to hour 8: 55.7%
Serum iron [1]; 20 mg single SC dose, n = 6, patients with refractory or hemolytic anemia or hemochromatosis
  Percent Change in Serum Iron from Baseline to Hour 8: −55.7% (p = 0.001)
Serum iron [1]; subjects administered 1 mg, 5 mg, 10 mg or 20 mg, serum iron had not returned to baseline through day 7
  reduction of serum iron from baseline to the end of day 7: 18.0%
Serum iron [1]; subjects administered at least 30 mg
  serum iron rebound: rebound effect which resulted in above-baseline serum iron levels within 48 hours of treatment
Serum iron [2]; 1 mg to 30 mg SC
  dose response of serum iron decrease: greater decrease in serum iron at higher doses
Serum iron [2]; 20-mg dose group, 8 hours post-dose
  Mean maximum percentage reduction in serum iron: 58%
Serum iron [2]; [4]
  TSAT % level change: Decreases
  ferritin level change: Decreases
  total iron binding capacity (TIBC) change: Decreases
  transferrin level change: Decreases
Serum iron [2]; all five dose groups (1, 5, 10, 20, 30 mg SC)
  serum iron levels compared to baseline: decrease in serum iron levels compared to baseline was generally observed
Serum iron [2]; most patients
  duration of serum iron reduction: sustained up to Day 8 in most patients
Serum iron [2]; patients at risk for iron overload disorders
  anti-drug antibodies: No anti-drug antibodies were detected
Serum iron [3]; Day 8
  Unsaturated iron binding capacity (UIBC) change from baseline: no trends in changes from baseline
Serum iron [3]; Day 8, all treatment groups
  Ferritin change from baseline: increased
  TSAT % change from baseline: increased
  total iron binding capacity (TIBC) change from baseline: increased
  transferrin change from baseline: increased
Serum iron [3]; healthy subjects
  anti-drug antibodies: No anti-drug antibodies were detected
  maximum reduction in serum iron, 20 mg versus 30 mg: no apparent difference
  time for serum iron levels to return to baseline: < 48 h
Serum iron [3]; healthy subjects, 5 to 30 mg
  dose response of serum iron reduction: larger reductions in serum iron generally associated with increases in dose up to 20 mg
